# Key:
# [1] = target: Sodium-dependent serotonin transporter (Rattus norvegicus, UniProt P31652); assay: Displacement of [3H]-5HT from rat SERT expressed in CHO cells incubated for 20 mins by liquid scintillation analysis; format: cell-based
# [2] = Inhibition of 5HT uptake in Sprague-Dawley rat brain Synaptosome; format: subcellular
# [3] = target: Cholesterol 24-hydroxylase (Homo sapiens, UniProt Q9Y6A2); assay: Inhibition of CYP46A1 (unknown origin); format: ADME
# [4] = Antioxidant activity assessed as trolox equivalent of ORAC radical scavenging activity by ORAC assay; format: functional
# [5] = target: Cholinesterase (Homo sapiens) (UniProt P06276); assay: Inhibition of human BChE at 800 uM using butyrylthiocholine iodide as substrate incubated for 10 mins by Ellman's method
# SARS-CoV-2 = assay: Antiviral activity against SARS-CoV-2; format: functional, Severe acute respiratory syndrome coronavirus 2
# Sequence of Cholesterol 24-hydroxylase (Q9Y6A2 whole entry): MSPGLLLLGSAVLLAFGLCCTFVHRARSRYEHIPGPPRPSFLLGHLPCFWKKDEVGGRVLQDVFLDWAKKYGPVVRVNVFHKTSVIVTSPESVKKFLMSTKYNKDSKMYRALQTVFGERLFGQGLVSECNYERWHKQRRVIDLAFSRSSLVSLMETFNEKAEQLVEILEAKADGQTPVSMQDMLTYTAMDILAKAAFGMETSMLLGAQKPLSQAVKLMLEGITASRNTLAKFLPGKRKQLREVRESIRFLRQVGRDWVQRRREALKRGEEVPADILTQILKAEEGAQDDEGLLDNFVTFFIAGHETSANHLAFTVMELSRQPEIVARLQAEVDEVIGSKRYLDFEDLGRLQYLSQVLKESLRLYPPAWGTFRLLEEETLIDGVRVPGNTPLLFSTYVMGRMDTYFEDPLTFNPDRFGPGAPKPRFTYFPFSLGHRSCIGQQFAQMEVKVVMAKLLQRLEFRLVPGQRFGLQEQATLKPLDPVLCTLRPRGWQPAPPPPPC
# Sequence of Cholinesterase (Homo sapiens) (P06276 whole entry): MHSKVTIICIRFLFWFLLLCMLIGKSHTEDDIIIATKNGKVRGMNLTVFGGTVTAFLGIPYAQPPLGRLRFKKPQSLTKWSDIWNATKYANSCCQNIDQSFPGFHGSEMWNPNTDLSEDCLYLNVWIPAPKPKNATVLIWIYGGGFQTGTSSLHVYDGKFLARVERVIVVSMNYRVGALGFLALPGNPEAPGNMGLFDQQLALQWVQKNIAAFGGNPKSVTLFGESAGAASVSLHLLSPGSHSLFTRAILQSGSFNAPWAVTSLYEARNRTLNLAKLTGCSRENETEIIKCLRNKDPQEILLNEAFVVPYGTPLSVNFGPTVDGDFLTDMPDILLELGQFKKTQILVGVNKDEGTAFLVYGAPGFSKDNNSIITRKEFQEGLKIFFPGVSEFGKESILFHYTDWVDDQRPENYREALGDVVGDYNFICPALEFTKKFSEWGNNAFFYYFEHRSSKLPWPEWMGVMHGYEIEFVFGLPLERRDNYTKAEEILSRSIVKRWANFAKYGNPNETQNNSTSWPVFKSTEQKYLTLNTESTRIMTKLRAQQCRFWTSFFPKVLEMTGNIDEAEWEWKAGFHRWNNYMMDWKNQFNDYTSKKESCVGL
# Sequence of Sodium-dependent serotonin transporter (P31652 whole entry): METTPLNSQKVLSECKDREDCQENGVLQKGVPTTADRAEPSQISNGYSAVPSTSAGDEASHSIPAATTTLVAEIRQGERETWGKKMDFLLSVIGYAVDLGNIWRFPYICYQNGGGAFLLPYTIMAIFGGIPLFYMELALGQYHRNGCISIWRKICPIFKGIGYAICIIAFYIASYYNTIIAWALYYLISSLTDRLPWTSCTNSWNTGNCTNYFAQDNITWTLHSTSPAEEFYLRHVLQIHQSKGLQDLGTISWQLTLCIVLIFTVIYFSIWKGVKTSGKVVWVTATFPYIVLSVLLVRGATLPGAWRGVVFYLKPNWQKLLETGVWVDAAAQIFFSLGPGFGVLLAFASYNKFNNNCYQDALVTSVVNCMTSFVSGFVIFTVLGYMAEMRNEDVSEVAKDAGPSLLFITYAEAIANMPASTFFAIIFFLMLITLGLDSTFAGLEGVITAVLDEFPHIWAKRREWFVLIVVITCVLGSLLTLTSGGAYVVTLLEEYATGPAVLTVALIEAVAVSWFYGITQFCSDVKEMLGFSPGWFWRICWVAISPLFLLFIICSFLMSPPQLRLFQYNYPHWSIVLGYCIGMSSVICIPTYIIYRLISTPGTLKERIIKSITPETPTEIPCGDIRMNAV
smiles,measurement,setting,value
O=C(/C=C/c1ccc(O)cc1)NCCCCN(CCCNC(=O)/C=C/c1ccc(O)cc1)C(=O)/C=C\c1ccc(O)cc1,IC50,[1],740 nM
same,IC50,[2],1070 nM
O=C(/C=C/c1ccc(O[C@@H]2O[C@H](CO)[C@@H](O)[C@H](O)[C@H]2O)c(O)c1)NCCCNCCCCNC(=O)CCc1ccc(O)c(O)c1,Ki,[3],106 nM
O=C1CCc2cc(O)c(O)cc2[C@@H](c2ccc(O)c(O)c2)CC(=O)NCCCCNCCCN1,Activity,[4],2.68 µM
same,inhibition,[5],37.8%
O=C1CCc2cc(O)c(O)cc2[C@H](c2ccc(O)c(O)c2)CC(=O)NCCCCNCCCN1,Activity,[4],2.37 µM
same,inhibition,[5],18.1%
NCCCCNCCCN [SPERMIDINE],inhibition (INH),SARS-CoV-2,85%
O=C(/C=C/c1ccc(O)c(O[C@@H]2O[C@H](CO)[C@@H](O)[C@H](O)[C@H]2O)c1)NCCCNCCCCNC(=O)CCc1ccc(O)c(O)c1,Ki,[3],12.9 nM
O=C(/C=C/c1ccc(O)c(O)c1)NCCCNCCCCNC(=O)CCc1ccc(O[C@@H]2O[C@H](CO)[C@@H](O)[C@H](O)[C@H]2O)c(O)c1,Ki,[3],258 nM

# Reference: ChEMBL document CHEMBL5107984, “The untapped potential of spermidine alkaloids: Sources, structures, bioactivities and syntheses” (Eur J Med Chem, 2022)
